Reference: patent publication US20200054633A1 (priority 2017, published 2020)
Read-outs that look alike come from different tables or passages of the source.

Conditions: OST placebo, N=74
Source text: This study followed a randomized, double-blind, placebo-controlled, parallel-group, multicenter design.
Analysis set for safety: Safety Set included all subjects who received at least 1 dose of study drug.

SMILES: O=C(O)[C@H]1C2CCC(CC2)[C@@H]1Nc1nc(-c2c[nH]c3ncc(F)cc23)ncc1F [Compound (1), Pimodivir]
- Any Serious TEAE (300 mg): 0
- Any Serious TEAE at least possibly related to study medication (300 mg): 0
- Any Severe (Grade 3) TEAE (300 mg): 2 (2.7%)
- Any TEAE (300 mg): 32
- Any TEAE at least possibly related to study medication (300 mg): 9
- Any TEAE leading to a temporary stop of study medication (300 mg): 2
- Any TEAE leading to permanent stop of study medication (300 mg): 7
- Any TEAE with fatal outcome (300 mg): 0
- Grade 3 TEAE: Anaemia (300 mg): 0
- Grade 3 TEAE: Balance disorder (300 mg): 0
- Grade 3 TEAE: Blood and lymphatic system disorders (300 mg): 0
- Grade 3 TEAE: Blood creatine phosphokinase increased (300 mg): 0
- Grade 3 TEAE: Bronchitis (300 mg): 1 (1.4%)
- Grade 3 TEAE: Constipation (300 mg): 0
- Grade 3 TEAE: Diarrhoea (300 mg): 0
- Grade 3 TEAE: Fatigue (300 mg): 1 (1.4%)
- Grade 3 TEAE: Gastrointestinal disorders (300 mg): 0
- Grade 3 TEAE: General disorders and administration site conditions (300 mg): 1 (1.4%)
- Grade 3 TEAE: Hyperkalaemia (300 mg): 0
- Grade 3 TEAE: Infections and infestations (300 mg): 1 (1.4%)
- Grade 3 TEAE: Investigations (300 mg): 0
- Grade 3 TEAE: Lymphopenia (300 mg): 0
- Grade 3 TEAE: Metabolism and nutrition disorders (300 mg): 0
- Grade 3 TEAE: Nausea (300 mg): 0
- Grade 3 TEAE: Nervous system disorders (300 mg): 1 (1.4%)
- Grade 3 TEAE: Neutropenia (300 mg): 0
- Grade 3 TEAE: Neutrophil count decreased (300 mg): 0
- Grade 3 TEAE: Protein urine present (300 mg): 0
- Grade 3 TEAE: Syncope (300 mg): 1 (1.4%)
- Grade 3 TEAE: Thrombocytopenia (300 mg): 0
- Grade 3 TEAE: Vomiting (300 mg): 0
- TEAE: Abdominal discomfort (300 mg): 0 n (%)
- TEAE: Abdominal pain (300 mg): 0 n (%)
- TEAE: Abdominal pain upper (300 mg): 0 n (%)
- TEAE: Abdominal tenderness (300 mg): 0 n (%)
- TEAE: Alanine aminotransferase increased (300 mg): 1 n (%)
- TEAE: All events (300 mg): 32 n (%)
- TEAE: Anaemia (300 mg): 0 n (%)
- TEAE: Aphthous stomatitis (300 mg): 0 n (%)
- TEAE: Aspartate aminotransferase increased (300 mg): 1 n (%)
- TEAE: Atrioventricular block first degree (300 mg): 0 n (%)
- TEAE: Back pain (300 mg): 1 n (%)
- TEAE: Bacterial vaginosis (300 mg): 0 n (%)
- TEAE: Balance disorder (300 mg): 0 n (%)
- TEAE: Blood and lymphatic system disorders (300 mg): 3 n (%)
- TEAE: Blood bicarbonate decreased (300 mg): 0 n (%)
- TEAE: Blood bilirubin decreased (300 mg): 0 n (%)
- TEAE: Blood bilirubin increased (300 mg): 1 n (%)
- TEAE: Blood creatine phosphokinase increased (300 mg): 2 n (%)
- TEAE: Blood creatinine increased (300 mg): 1 n (%)
- TEAE: Blood glucose increased (300 mg): 1 n (%)
- TEAE: Blood potassium increased (300 mg): 0 n (%)
- TEAE: Blood pressure diastolic increased (300 mg): 0 n (%)
- TEAE: Blood urine (300 mg): 1 n (%)
- TEAE: Bradycardia (300 mg): 0 n (%)
- TEAE: Bronchitis (300 mg): 1 n (%)
- TEAE: Cardiac disorders (300 mg): 1 n (%)
- TEAE: Constipation (300 mg): 0 n (%)
- TEAE: Contusion (300 mg): 0 n (%)
- TEAE: Cough (300 mg): 0 n (%)
- TEAE: Decreased appetite (300 mg): 0 n (%)
- TEAE: Dehydration (300 mg): 0 n (%)
- TEAE: Diabetes mellitus (300 mg): 1 n (%)
- TEAE: Diarrhoea (300 mg): 5 n (%)
- TEAE: Dizziness (300 mg): 0 n (%)
- TEAE: Dry mouth (300 mg): 0 n (%)
- TEAE: Dry skin (300 mg): 0 n (%)
- TEAE: Dysgeusia (300 mg): 0 n (%)
- TEAE: Dyspepsia (300 mg): 1 n (%)
- TEAE: Dyspnoea (300 mg): 1 n (%)
- TEAE: Dysuria (300 mg): 0 n (%)
- TEAE: Ear and labyrinth disorders (300 mg): 0 n (%)
- TEAE: Ear discomfort (300 mg): 0 n (%)
- TEAE: Ecchymosis (300 mg): 0 n (%)
- TEAE: Electrocardiogram ST segment depression (300 mg): 0 n (%)
- TEAE: Enteritis (300 mg): 0 n (%)
- TEAE: Fatigue (300 mg): 1 n (%)
- TEAE: Fungal infection (300 mg): 0 n (%)
- TEAE: Gamma-glutamyltransferase increased (300 mg): 0 n (%)
- TEAE: Gastrointestinal disorders (300 mg): 10 n (%)
- TEAE: General disorders and administration site conditions (300 mg): 2 n (%)
- TEAE: Glomerular filtration rate decreased (300 mg): 4 n (%)
- TEAE: Gout (300 mg): 1 n (%)
- TEAE: HIV antibody positive (300 mg): 0 n (%)
- TEAE: HIV test positive (300 mg): 0 n (%)
- TEAE: Haematuria (300 mg): 1 n (%)
- TEAE: Haemoglobin decreased (300 mg): 2 n (%)
- TEAE: Haemoglobin increased (300 mg): 0 n (%)
- TEAE: Headache (300 mg): 2 n (%)
- TEAE: Hepatic enzyme increased (300 mg): 0 n (%)
- TEAE: Hepatitis C (300 mg): 1 n (%)
- TEAE: Herpes simplex (300 mg): 0 n (%)
- TEAE: Hyperglycaemia (300 mg): 0 n (%)
- TEAE: Hyperhidrosis (300 mg): 0 n (%)
- TEAE: Hyperkalaemia (300 mg): 0 n (%)
- TEAE: Hyperproteinaemia (300 mg): 1 n (%)
- TEAE: Hypertension (300 mg): 0 n (%)
- TEAE: Hyperuricaemia (300 mg): 0 n (%)
- TEAE: Hypokalaemia (300 mg): 0 n (%)
- TEAE: Hyponatraemia (300 mg): 1 n (%)
- TEAE: Hypophosphataemia (300 mg): 2 n (%)
- TEAE: Hypothermia (300 mg): 1 n (%)
- TEAE: Increased appetite (300 mg): 0 n (%)
- TEAE: Infections and infestations (300 mg): 5 n (%)
- TEAE: Injury, poisoning and procedural complications (300 mg): 0 n (%)
- TEAE: Insomnia (300 mg): 2 n (%)
- TEAE: Investigations (300 mg): 8 n (%)
- TEAE: Irritability (300 mg): 0 n (%)
- TEAE: Labyrinthitis (300 mg): 0 n (%)
- TEAE: Leukopenia (300 mg): 0 n (%)
- TEAE: Lymph node pain (300 mg): 1 n (%)
- TEAE: Lymphadenopathy (300 mg): 1 n (%)
- TEAE: Lymphopenia (300 mg): 0 n (%)
- TEAE: Metabolism and nutrition disorders (300 mg): 4 n (%)
- TEAE: Micturition urgency (300 mg): 0 n (%)
- TEAE: Middle ear effusion (300 mg): 0 n (%)
- TEAE: Migraine (300 mg): 0 n (%)
- TEAE: Muscle spasms (300 mg): 0 n (%)
- TEAE: Musculoskeletal and connective tissue disorders (300 mg): 2 n (%)
- TEAE: Musculoskeletal chest pain (300 mg): 1 n (%)
- TEAE: Myalgia (300 mg): 0 n (%)
- TEAE: Myocarditis (300 mg): 0 n (%)
- TEAE: Nasal congestion (300 mg): 0 n (%)
- TEAE: Nausea (300 mg): 3 n (%)
- TEAE: Nephropathy (300 mg): 0 n (%)
- TEAE: Nervous system disorders (300 mg): 4 n (%)
- TEAE: Neutropenia (300 mg): 0 n (%)
- TEAE: Neutrophil count decreased (300 mg): 1 n (%)
- TEAE: Oedema peripheral (300 mg): 0 n (%)
- TEAE: Oral herpes (300 mg): 0 n (%)
- TEAE: Otitis media (300 mg): 0 n (%)
- TEAE: Paraesthesia (300 mg): 1 n (%)
- TEAE: Percussion test abnormal (300 mg): 1 n (%)
- TEAE: Petechiae (300 mg): 0 n (%)
- TEAE: Pharyngitis streptococcal (300 mg): 0 n (%)
- TEAE: Pneumonia chlamydial (300 mg): 0 n (%)
- TEAE: Protein urine (300 mg): 1 n (%)
- TEAE: Protein urine present (300 mg): 0 n (%)
- TEAE: Proteinuria (300 mg): 3 n (%)
- TEAE: Pruritus (300 mg): 0 n (%)
- TEAE: Psychiatric disorders (300 mg): 3 n (%)
- TEAE: Rash (300 mg): 0 n (%)
- TEAE: Red blood cells urine (300 mg): 1 n (%)
- TEAE: Renal and urinary disorders (300 mg): 6 n (%)
- TEAE: Renal failure (300 mg): 1 n (%)
- TEAE: Renal failure chronic (300 mg): 1 n (%)
- TEAE: Renal impairment (300 mg): 1 n (%)
- TEAE: Respiratory, thoracic and mediastinal disorders (300 mg): 1 n (%)
- TEAE: Rhonchi (300 mg): 1 n (%)
- TEAE: Sensation of foreign body (300 mg): 0 n (%)
- TEAE: Sinus bradycardia (300 mg): 0 n (%)
- TEAE: Sinus congestion (300 mg): 0 n (%)
- TEAE: Sinus tachycardia (300 mg): 1 n (%)
- TEAE: Sinusitis (300 mg): 3 n (%)
- TEAE: Skin and subcutaneous tissue disorders (300 mg): 0 n (%)
- TEAE: Sleep disorder (300 mg): 0 n (%)
- TEAE: Sleep terror (300 mg): 1 n (%)
- TEAE: Syncope (300 mg): 1 n (%)
- TEAE: Tachycardia (300 mg): 0 n (%)
- TEAE: Thrombocytopenia (300 mg): 1 n (%)
- TEAE: Tinnitus (300 mg): 0 n (%)
- TEAE: Tongue discolouration (300 mg): 1 n (%)
- TEAE: Tremor (300 mg): 0 n (%)
- TEAE: Upper respiratory tract infection (300 mg): 0 n (%)
- TEAE: Urinary tract infection (300 mg): 0 n (%)
- TEAE: Urine ketone body present (300 mg): 1 n (%)
- TEAE: Vascular disorders (300 mg): 0 n (%)
- TEAE: Vertigo (300 mg): 0 n (%)
- TEAE: Vomiting (300 mg): 1 n (%)
- TEAE: Wheezing (300 mg): 1 n (%)
- TEAE: White blood cell count decreased (300 mg): 0 n (%)
- Worst grade 1 or 2 TEAE (300 mg): 30
- Worst grade 3 TEAE (300 mg): 2
- Worst grade 3 or 4 TEAE (300 mg): 2
- Worst grade 4 TEAE (300 mg): 0
- Any Serious TEAE (600 mg): 1 (1.4%)
- Any Serious TEAE at least possibly related to study medication (600 mg): 0
- Any Severe (Grade 3) TEAE (600 mg): 5 (6.8%)
